# Data taken from ChEMBL document CHEMBL4251633, “Design, synthesis, biological evaluation and cocrystal structures with tubulin of chiral β-lactam bridged combretastatin A-4 analogues as potent antitumor agents” (Eur J Med Chem, 2018).
# Active and inactive are the calls of the source. No cut-off for these calls is given here.
# Experiments:
# [1] = (§1) Inhibition of pig brain tubulin polymerization measured every 1 min for 20 mins by spectrophotometric method; set-up: species or system Sus scrofa
# Sus scrofa = organism: Sus scrofa; experiment: as §1
# HUVEC = experiment: Antiangiogenic activity against HUVEC assessed as disruption of capillary-like tube formation at 50 nM after 12 hrs by inverted microscopic method; assay type: functional, cell-based; conditions: Homo sapiens
# HeLa [2] = experiment: Induction of apoptosis in human HeLa cells assessed as live cells at 50 nM after 48 hrs by Annexin V-FITC/propidium iodide staining based flow cytometry (reference value: 96.5%); assay type: functional
# HeLa [3] = experiment: Induction of apoptosis in human HeLa cells assessed as live cells at 100 nM after 48 hrs by Annexin V-FITC/propidium iodide staining based flow cytometry (reference value: 96.5%); assay type: functional
# HeLa [4] = experiment: Induction of apoptosis in human HeLa cells assessed as necrotic cells at 100 nM after 48 hrs by Annexin V-FITC/propidium iodide staining based flow cytometry (reference value: 0.9%); assay type: functional
# HeLa [5] = experiment: Induction of apoptosis in human HeLa cells assessed as live cells at 200 nM after 48 hrs by Annexin V-FITC/propidium iodide staining based flow cytometry (reference value: 96.5%); assay type: functional
# HeLa [6] = experiment: Induction of apoptosis in human HeLa cells assessed as early apoptotic cells at 200 nM after 48 hrs by Annexin V-FITC/propidium iodide staining based flow cytometry (reference value: 0.7%); assay type: functional
# [7] = Acute toxicity in ICR mouse assessed as survival rate at 200 mg/kg, ip measured on day 14 (reference value: 100%); assay type: organism-based; conditions: in vivo
# [8] = Acute toxicity in ICR mouse assessed as survival rate at 150 mg/kg, ip measured on day 14 (reference value: 100%); assay type: organism-based; conditions: in vivo
# Mus musculus = experiment: Acute toxicity in ICR mouse assessed as death at 100 to 200 mg/kg, ip measured after 4 days; assay type: organism-based; conditions: in vivo, 96 h
# A2780 = experiment: Antitumor activity against human A2780 cells xenografted in Balb/c nude mouse assessed as induction of tumor necrosis at 8 mg/kg, ip once in every 2 days measured after 14 days by H and E staining based assay; assay type: functional, organism-based
smiles,measurement,setting,value
COc1ccc([C@H]2[C@H](C)C(=O)N2c2cc(OC)c(OC)c(OC)c2)cc1O,IC50,[1],1700 nM
same,inhibition,Sus scrofa,Dose-dependent effect
same,Activity,HUVEC,Active
same,Activity,HeLa [2],42%
same,Activity,HeLa [3],27.3%
same,Activity,HeLa [4],7.5%
same,Activity,HeLa [5],21.6%
same,Activity,HeLa [6],37.5%
same,survival at 14 day,[7],30%
same,survival at 14 day,[8],40%
same,Activity,Mus musculus,Non-Toxic
same,Activity,A2780,Active
